Measurements published in patent publication EP2842557A1, “Mildronate in ophthalmic disorders” (SIGMA-TAU Industrie Farmaceutiche Riunite S.p.A., priority 2013, dated 2015).

How the values were obtained:
Format in all cases: in vivo, male Wistar rats
Caspase-3 = Caspase-3 expression by immunohistochemistry (confirmed by western blot of retina extracts)
Method: (§1) A group of 55 male Wistar rats, average weight 300-350 g, were housed in controlled light and temperature with unlimited access to food and water. 20 animals were submitted to intraocular injection of 0.5 mM, 2 mM, 3.5 mM, 5 mM mildronate, 15 µl in physiological solution, to standardize experimental conditions (data not shown). A group of 5 animals were submitted to intraocular injection of 2% methylcellulose (MTC), 15 µl in physiological solution. MTC is a molecule capable of mechanically blocking the outflow of aqueous humor leading to ocular hypertension.
(§2) Thirty animals were randomly separated into 3 experimental groups: rats from first group received mildronate 5 mM; rats from second group received mildronate 2 mM; rats from third group received mildronate 2 mM + L-carnitine 0.6 mM, 15 µl in physiological solution; all controlateral eyes were used as control.
(§3) After local anesthesia with 0.4% oxybuprocaine eye drops (Novesina™, Novartis, Basel, Switzerland) and after induction with ether, animal were injected in the posterior chamber of the right eye with solutions described above.
(§4) 24 hours after the intraocular injection, rats were given general anesthesia by intra-peritoneal injection of 500 pl sodium-thiopental solution (Farmotal™, Pharmacia & Upjohn, USA) in saline. They were then sacrificed by carotid bleeding and eyeballs were removed.
Caspase-3 expression was detected with a rabbit polyclonal anti-caspase-3 antibody (Santa Cruz) (1:100), followed by a green fluorescent goat anti-rabbit IgG Alexa Fluor® (Molecular Probes) secondary antibody. […]
(§5) The observations were made under a fluorescence microscope and pictures taken by computerized image acquisition. […]

[1] = test system: RGCs and astrocytes cells of the optic nerve; assay: TUNEL assay (DNA damage) on eye sections after intraocular injection; conditions: 24 hours
Method: as §1, with “hypertension. […]” for “hypertension.”
The sections (thickness of 10 µm), left to dry at room temperature for 30 min, were subjected to the following treatments: rehydration through a descending alcohol series (100°, 95°, 75°; 2 min each); incubation with protease 20 µg/mL in Triton X-100 to 0.1% at 37°C for 30 min; washes with 1X PBS for 2 min; incubation with TUNEL reagent (In Situ Cell Death Detection Kit, AP/ROCHE), containing 1/10 in volume of terminal deoxynucleotidyl transferase and the remaining fraction of nucleotides labeled with a fluorescent chromophore, 10 µl per section at 37°C for 1h. […] The observations were made under a fluorescence microscope and pictures were taken by computerized image acquisition.

optic nerve and retina = assay: Cellular morphology of optic nerve and retina sections after intraocular injection; conditions: 24 hours
Method: as §1, §2, §3
24 hours after the intraocular injection, rats were given general anesthesia by intra-peritoneal injection of 500 pl sodium-thiopental solution (Farmotal™, Pharmacia & Upjohn, USA) in saline. They were then sacrificed by carotid bleeding and eyeballs were removed. […]

iNOS = iNOS expression by immunohistochemistry (confirmed by western blot of retina extracts)
Method: as §1, §2, §3, §4
iNOS expression was detected with a rabbit polyclonal anti-iNOS antibody (Santa Cruz) (1:50), followed by a green fluorescent goat anti-rabbit IgG Alexa Fluor® (Molecular Probes) secondary antibody. […]
as §5

## C[N+](C)(C)NCCC(=O)[O-] [mildronate, 3-(2,2,2-trimethylhydrazinium)propionate]
Caspase-3; 2 mM mildronate, optic nerve and retina
  Caspase-3 expression: mild decrease of positivity
Caspase-3; 5 mM mildronate, astrocytes and retinal cells
  Caspase-3 expression: high caspase-3 levels
Caspase-3; summary statement, 24 hours after treatment
  Apoptosis of retinal ganglion cells and optic nerve astrocytes: showed apoptosis
[1]; mildronate 2 mM
  DNA damage (TUNEL fluorescence due to DNA fragmentation): slight positive fluorescence
[1]; mildronate 5 mM, RGCs and astrocytes of the optic nerve
  DNA damage (TUNEL fluorescence due to DNA fragmentation): strong fluorescence
Optic nerve and retina; mildronate 5 mM, 15 µl intraocular injection, vs control eye
  Cellular morphology of optic nerve: fibers do not run longitudinally, the papilla shows an excavation
Optic nerve and retina; mildronate treated animals, intraocular injection
  Cellular morphology of retina: picnotic and/or vacuolated nuclei and fragmented chromatin
iNOS; 2 mM mildronate, optic nerve and retina, with respect to 5 mM mildronate-treated specimens
  iNOS expression: mild decrease of iNOS expression
iNOS; 5 mM mildronate, 24 hours, glial retinal cells and astrocytes of optic nerve, compared to control
  iNOS expression: high levels of iNOS
iNOS; summary statement, dose not stated
  NO levels and iNOS immunolocalization: increased NO levels and iNOS immunolocalization
